Read-outs that look alike come from different tables or passages of the source.
Assays:
[1] = tested on: Klebsiella pneumoniae expressing VIM-1 (IHMA599644); assay: Antibiotic potentiation activity: synergistic concentration (MITC95) with imipenem, OD600 growth; type: cell-based; settings: for Klebsiella pneumoniae expressing VIM-1 (IHMA 599644) MITC95: concentration giving 95% inhibition of bacterial growth
Method in brief: (§1)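 Inoculum: saline suspension of overnight colonies, 1:100 into 1.1× CAMHB. Imipenem 4 μg/ml final (alt. 1 μg/ml) + compound; 35 °C, 22–24 h; absorbance read-out.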

[2] = tested on: Escherichia coli expressing NDM-1 (CLB30016); assay: as above; type: cell-based; settings: for Escherichia coli expressing NDM-1 (CLB 30016) MITC95: concentration giving 95% inhibition of bacterial growth
Method in brief: as §1

[3] = tested on: Serratia marcescens expressing IMP-1 (CL5741); assay: as above; type: cell-based; settings: for Serratia marcescens expressing IMP-1 (CL5741) MITC95: concentration giving 95% inhibition of bacterial growth
Method in brief: as §1

IMP-1 = IMP-1 (Serratia marcescens, UniProt P52699); assay: biochemical; type: biochemical; settings: read-out: IMP-1 IC50
VIM-1 = VIM-1 (Pseudomonas aeruginosa (strain ATCC 15692 / DSM 22644 / CIP 104116 / JCM 14847 / LMG 12228 / 1C / PRS 101 / PAO1), UniProt A0A0F7KYQ8); assay: Enzyme activity: determination of IC50, fluorescence assay with CCF2-FA substrate (VIM-1); type: biochemical
NDM-1 = NDM-1 (Klebsiella pneumoniae, UniProt C7C422); assay: biochemical; type: biochemical; settings: read-out: NDM-1 IC50
[4] = Klebsiella pneumoniae expressing VIM-1 (IHMA599644), 95% growth inhibition
[5] = Escherichia coli expressing NDM-1 (CLB30016), 95% growth inhibition
[6] = Serratia marcescens expressing IMP-1 (CL5741), 95% growth inhibition
[7] = IMP-1 enzyme, CCF2-FA fluorescence assay
[8] = VIM-1 enzyme, CCF2-FA fluorescence assay, read-out: VIM-1 IC50
[9] = NDM-1 enzyme, CCF2-FA fluorescence assay
[10] = Klebsiella pneumoniae IHMA599644 (VIM-1), 95% growth inhibition
[11] = (CLB30016, NDM-1), 95% growth inhibition
[12] = Serratia marcescens CL5741 (IMP-1), 95% growth inhibition
[13] = IMP-1 enzyme, CCF2-FA substrate
[14] = VIM-1 enzyme, CCF2-FA substrate, read-out: VIM-1 IC50
[15] = NDM-1 enzyme, CCF2-FA substrate
[16] = fluorescence assay with CCF2-FA substrate
[17] = fluorescence assay with CCF2-FA substrate, read-out: VIM-1 IC50

Chain of IMP-1 (P52699 whole entry, looked up): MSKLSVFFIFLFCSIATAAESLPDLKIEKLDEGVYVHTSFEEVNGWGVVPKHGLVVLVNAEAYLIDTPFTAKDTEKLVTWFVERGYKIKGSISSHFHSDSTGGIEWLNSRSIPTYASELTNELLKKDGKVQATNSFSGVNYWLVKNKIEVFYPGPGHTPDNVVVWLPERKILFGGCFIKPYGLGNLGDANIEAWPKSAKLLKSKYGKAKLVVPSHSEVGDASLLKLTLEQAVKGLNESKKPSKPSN
Chain of NDM-1 (C7C422 whole entry, looked up, species assumed): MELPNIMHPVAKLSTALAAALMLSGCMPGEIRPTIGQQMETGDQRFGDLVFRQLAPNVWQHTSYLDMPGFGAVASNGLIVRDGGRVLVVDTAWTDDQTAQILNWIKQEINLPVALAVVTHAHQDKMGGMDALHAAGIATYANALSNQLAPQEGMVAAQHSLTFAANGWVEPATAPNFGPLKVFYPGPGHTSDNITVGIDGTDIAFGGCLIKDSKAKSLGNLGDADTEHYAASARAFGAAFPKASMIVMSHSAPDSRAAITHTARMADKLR

Row | Structure (SMILES) | Klebsiella pneumoniae MITC95 [1, 4] [µM] | Escherichia coli MITC95 [2, 5] [µM] | Serratia marcescens MITC95 [3, 6] [µM] | IC50 (IMP-1; [7]) [nM] | IC50 (VIM-1; [8]) [nM] | IC50 (NDM-1; [9]) [nM] | Klebsiella pneumoniae MITC95 [1, 10] [µM] | Escherichia coli MITC95 [2, 11] [µM] | Serratia marcescens MITC95 [3, 12] [µM] | IC50 (IMP-1; [13]) [nM] | IC50 (VIM-1; [14]) [nM] | IC50 (NDM-1; [15]) [nM] | further results
1 | CS(=O)(=O)Nc1ccc(-c2ccc(C(F)(F)F)c(S(N)(=O)=O)c2-c2nn[nH]n2)cc1 [Example 274, 4′-(methylsulfonamido)-2-(2H-tetrazol-5-yl)-4-(trifluoromethyl)-[1,1′-biphenyl]-3-sulfonamide] | 4.688 | 0.7813 | 0.1953 | 0.637 | 0.637 | 0.637 |  |  |  |  |  |  | 
2 | NS(=O)(=O)c1cccc(-c2ccc3nc(C(=O)O)ccc3c2)c1-c1nn[nH]n1 [Example 287, 6-(3-sulfamoyl-2-(2H-tetrazol-5-yl)phenyl)quinoline-2-carboxylic acid] | 37.5 | 9.375 | 18.75 | 159 | 34 | 0.734 |  |  |  |  |  |  | 
3 | NS(=O)(=O)c1c(C(F)(F)F)ccc(N2CCN(CCCO)CC2)c1-c1nnn[nH]1 [Example 664, 3-[4-(3-hydroxypropyl)piperazin-1-yl]-2-(1H-tetrazol-5-yl)-6-(trifluoromethyl)benzenesulfonamide] |  |  |  |  |  |  | 6.25 | 0.25 | 0.418 | 38.5 | 52 | 18.1 | 
4 | NS(=O)(=O)c1c(C(F)(F)F)ccc(CC[C@H]2CC[C@@H](N)CC2)c1-c1nn[nH]n1 [Example 432, 3-(2-((1s,4r)-4-aminocyclohexyl)ethyl)-2-(2H-tetrazol-5-yl)-6-(trifluoromethyl)benzenesulfonamide] | 18.75 | 6.25 | 0.3906 | 11.7 | 4.72 | 47.9 |  |  |  |  |  |  | 
5 | NS(=O)(=O)c1c(C(F)(F)F)ccc(C2CC2)c1-c1nnn[nH]1 [Example 489, 3-cyclopropyl-2-(1H-tetrazol-5-yl)-6-(trifluoromethyl)benzenesulfonamide] | 9.375 | 1.563 | 0.7813 | 20.7 | 9.83 | 19.6 |  |  |  |  |  |  | 
6 | NC(=O)CNCc1ccc(-c2cccc(S(N)(=O)=O)c2-c2nnn[nH]2)cc1 [Example 340, 2-(((3′-sulfamoyl-2′-(1H-tetrazol-5-yl)-[1,1′-biphenyl]-4-yl)methyl)amino)acetamide] | 25 | 0.3906 | 1.563 | 90.2 | 158 | 5.14 |  |  |  |  |  |  | 
7 | NC(=O)C1CCN(c2ccc(C(F)(F)F)c(S(N)(=O)=O)c2-c2nnn[nH]2)CC1 [Example 656, 1-[3-sulfamoyl-2-(1H-tetrazol-5-yl)-4-(trifluoromethyl)phenyl]piperidine-4-carboxamide] |  |  |  |  |  |  | 3.125 | 0.5781 | 0.125 | 2.84 | 0.8 | 1.98 | 
8 | NCCN1CC(c2ccc(-c3ccc(C(F)(F)F)c(S(N)(=O)=O)c3-c3nnn[nH]3)cc2)C1 [Example 812, 4′-[1-(2-aminoethyl)azetidin-3-yl]-2-(1H-tetrazol-5-yl)-4-(trifluoromethyl)biphenyl-3-sulfonamide] |  |  |  |  |  |  |  |  |  |  |  |  | Klebsiella pneumoniae MITC95 ([1]; IHMA599644 (VIM-1), 95% inhibition of bacterial growth): 12.5 µM; Escherichia coli MITC95 ([2]; CLB30016 (NDM-1), 95% inhibition of bacterial growth): 1.563 µM; Serratia marcescens MITC95 ([3]; CL5741 (IMP-1), 95% inhibition of bacterial growth): 6.25 µM; IC50 (IMP-1; [16]): 5.77 nM; IC50 (VIM-1; [17]): 3.88 nM; IC50 (NDM-1; [16]): 2.7 nM
9 | N=C(NCCCN)c1ccc(-c2ccc(C(F)(F)F)c(S(N)(=O)=O)c2-c2nn[nH]n2)cc1 [Example 565, N-(3-aminopropyl)-3′-sulfamoyl-2′-(2H-tetrazol-5-yl)-4′-(trifluoromethyl)biphenyl-4-carboximidamide] |  |  |  |  |  |  | 12.5 | 12.5 | 25 | 200 | 11.3 | 187 | 
10 | NS(=O)(=O)c1cccc(CCc2ccccc2)c1-c1nnn[nH]1 [Example 154, 3-phenethyl-2-(1H-tetrazol-5-yl)benzenesulfonamide] |  |  |  |  |  |  |  |  |  |  |  |  | Klebsiella pneumoniae expressing VIM-1 (IHMA 599644) MITC95 [1]: 100 µM; Escherichia coli expressing NDM-1 (CLB 30016) MITC95 [2]: 2.344 µM; Serratia marcescens expressing IMP-1 (CL5741) MITC95 [3]: 0.3906 µM; IC50 (IMP-1; [16]): 10.8 nM; IC50 (VIM-1; VIM-1 IC50, fluorescence assay with CCF2-FA substrate): 80.8 nM; IC50 (NDM-1; [16]): 3.28 nM
11 | CC(C)(O)C1CN(Cc2ccc(-c3cccc(S(N)(=O)=O)c3-c3nnn[nH]3)cc2)C1 [Example 336, 4′-((3-(2-hydroxypropan-2-yl)azetidin-1-yl)methyl)-2-(1H-tetrazol-5-yl)-[1,1′-biphenyl]-3-sulfonamide] | 100 | 0.7813 | 4.688 | 379 | 634 | 34 |  |  |  |  |  |  | 
12 | Cc1ccc(Cc2cccc(S(N)(=O)=O)c2-c2nnn[nH]2)cc1 [Example 163, 3-(4-methylbenzyl)-2-(1H-tetrazol-5-yl)benzenesulfonamide] |  |  |  |  |  |  |  |  |  |  |  |  | Klebsiella pneumoniae expressing VIM-1 (IHMA 599644) MITC95 [1]: >200 µM; Escherichia coli expressing NDM-1 (CLB 30016) MITC95 [2]: 3.125 µM; Serratia marcescens expressing IMP-1 (CL5741) MITC95 [3]: 12.5 µM; IC50 (IMP-1; [16]): 327 nM; IC50 (VIM-1; [17]): 437 nM; IC50 (NDM-1; [16]): 17.7 nM
13 | NS(=O)(=O)c1c(C(F)(F)F)ccc(N2CCC[C@@H](O)C2)c1-c1nnn[nH]1 [Example 665, 3-[(3R)-3-hydroxypiperidin-1-yl]-2-(1H-tetrazol-5-yl)-6-(trifluoromethyl)benzenesulfonamide] |  |  |  |  |  |  | 4.688 | 1.563 | 1.172 | 29.8 | 0.999 | 7.48 | 
14 | Cn1cc2cc(-c3cccc(S(N)(=O)=O)c3-c3nnn[nH]3)ccc2n1 [Example 127, 3-(2-methyl-2H-indazol-5-yl)-2-(1H-tetrazol-5-yl)benzenesulfonamide] |  |  |  |  |  |  |  |  |  |  |  |  | Klebsiella pneumoniae expressing VIM-1 (IHMA 599644) MITC95 [1]: 37.5 µM; Escherichia coli expressing NDM-1 (CLB 30016) MITC95 [2]: 1.172 µM; Serratia marcescens expressing IMP-1 (CL5741) MITC95 [3]: 4.688 µM; IC50 (IMP-1; [16]): 157 nM; IC50 (VIM-1; [17]): 84.2 nM; IC50 (NDM-1; [16]): 1.11 nM
15 | NS(=O)(=O)c1cccc(-c2cnc(N3CCCCC3)nc2)c1-c1nnn[nH]1 [Example 122, 3-(2-(piperidin-1-yl)pyrimidin-5-yl)-2-(1H-tetrazol-5-yl)benzenesulfonamide] |  |  |  |  |  |  |  |  |  |  |  |  | Klebsiella pneumoniae expressing VIM-1 (IHMA 599644) MITC95 [1]: >200 µM; Escherichia coli expressing NDM-1 (CLB 30016) MITC95 [2]: 4.688 µM; Serratia marcescens expressing IMP-1 (CL5741) MITC95 [3]: 4.688 µM; IC50 (IMP-1; [16]): 63.1 nM; IC50 (VIM-1; [17]): 249 nM; IC50 (NDM-1; [16]): 3.08 nM
16 | NCCN[C@H]1CC[C@H](c2ccc(C(F)(F)F)c(S(N)(=O)=O)c2-c2nnn[nH]2)CC1 [Example 700, 3-{4-[(2-aminoethyl)amino]cyclo-hexyl}-2-(1H-tetrazol-5-yl)-6-(trifluoromethyl)benzene sulfonamide] |  |  |  |  |  |  | 1.563 | 0.3906 | 3.125 | 16.7 |  | 3.94 | IC50 (VIM-1; VIM-1 IC50, VIM-1 enzyme, CCF2-FA substrate): 0.958 nM
17 | NCCc1cccc(-c2ccc(C(F)(F)F)c(S(N)(=O)=O)c2-c2nnn[nH]2)c1 [Example 734, 3′-(2-aminoethyl)-2-(1H-tetraozl-5-yl)-4-(trifluoromethyl)biphenyl-3-sulfonamide] |  |  |  |  |  |  | 12.5 | 12.5 | 25 | 34.4 | 3.27 | 31.4 | 
18 | NCCCNc1nc2c(-c3cccc(S(N)(=O)=O)c3-c3nnn[nH]3)cccc2s1 [Example 643, 3-[2-(3-aminopropylamino)-1,3-benzothiazol-4-yl]-2-(1H-tetrazol-5-yl)benzenesulfonamide] |  |  |  |  |  |  | 25 | 1.563 | 25 | 101 | 12.3 | 2.34 | 
19 | N#Cc1ccc2ncc(-c3cccc(S(N)(=O)=O)c3-c3nnn[nH]3)n2c1 [Example 648, 3-(6-cyanoimidazo[1,2-a]pyridin-3-yl)-2-(1H-tetrazol-5-yl)benzenesulfonamide] |  |  |  |  |  |  | 12.5 | 1.563 | 6.25 | 95.7 | 15.3 | 5.11 | 

Source: patent publication US9708336B2, “Metallo-beta-lactamase inhibitors” (priority 2014, dated 2017)
